System: CD1 female mouse brain lipidome
Assay: Brain-region lipid levels (HPLC/MS/MS lipidomics) 2 h after single i.p. 3 mg/kg CP 55,940 vs vehicle
Format: in vivo
Method: The Bloomington Institutional Animal Care and Use Committee of Indiana University reviewed and approved the animal procedures. Female mice from the CD1 strain were utilized to match our study examining THC’s effects on the brain lipidome ([Leishman et al., 2018]). Mice were given a single i.p. injection of either 3 mg/kg CP or 1:1:18 cremophor:ethanol:saline vehicle (please refer to the section “3 mg/kg CP Is Relevant for Synthetic Cannabinoid Abuse and Has Stronger Effects on the Female Mouse Brain Lipidome During Adolescence” for a justification of dose and use of female mice). Three different age groups were given injections: PND 35 and PND 50 adolescents, and adult mice (PND 113). At least eight mice in each age group received CP and at least eight received vehicle. Matching the THC study time course ([Leishman et al., 2018]), mice were sacrificed via rapid decapitation 2 h after injection. Brains were immediately removed and flash-frozen in liquid nitrogen, and then stored at -80°C until dissections were performed. Brains were dissected on an ice-cold dissection plate into the following regions: STR, HIPP, CER, THAL, CTX, HYP, MID, and STEM. These abbreviations for these brain areas will be used exclusively when discussing the results generated by these specific dissections. Each dissected area was immediately placed in liquid nitrogen and then stored at -80°C until used for lipid extraction.
Tissue extracts were performed as previously described ([Bradshaw et al., 2006]; [Stuart et al., 2013]; [Raboune et al., 2014]; [Leishman et al., 2016a],[b], [2017], [2018]). First, samples were shock frozen in liquid nitrogen, weighed, and transferred to a centrifuge tube. The mass of the largest sample was multiplied by 50 to determine how many milliliters of HPLC-grade methanol (Fisher, Fair Lawn, NJ, United States) to add. Then, samples were spiked with 500 pmol deuterium-labeled NAGly (d8NAGly; Cayman Chemical, Ann Arbor, MI, United States). Samples were placed on ice in darkness for 2 h then individually homogenized and centrifuged at 19,000 × g for 20 min at 20°C. Supernatants were diluted with HPLC water (purified in house) to make a solution of 75% water, 25% supernatant. Lipids were partially purified on C18 solid phase extraction columns (Agilent, Palo Alto, CA, United States). A series of four elutions with 1.5 mL of 60%, 75%, 85%, and 100% methanol were collected ([Stuart et al., 2013]; [Leishman et al., 2016a],[b], [2018]).
As previously described ([Bradshaw et al., 2006]; [Tan et al., 2006]; [Smoum et al., 2010]; [Stuart et al., 2013]; [Tortoriello et al., 2013]; [Raboune et al., 2014]; [Leishman et al., 2016a],[b], [2017], [2018]), samples were analyzed using an Applied Biosystems API 3000 triple quadrupole mass spectrometer with electrospray ionization (Foster City, CA, United States). Using an Agilent XDB-C18 reversed phase analytical column and optimized mobile phase gradients, 20 μL from each elution were chromatographed. Two Shimadzu 10ADvp pumps (Columbia, MD, United States) provided the pressure for gradient elution. Mobile phase A: 20% methanol, 80% water (v/v) and 1 mM ammonium acetate (Sigma, St. Louis, MO, United States). Mobile phase B: 100% methanol, 1 mM ammonium acetate. Every method run began with 0% mobile phase B, reached 100% mobile phase B flowing at 0.2 mL/min, and gradually returned to 0% mobile phase B.
This screening library will be referred to as the lipidome when discussing data from this study. HPLC/MS/MS data were analyzed using Analyst software (Applied Biosystems) ([Bradshaw et al., 2006]; [Tan et al., 2006]; [Stuart et al., 2013]; [Tortoriello et al., 2013]; [Raboune et al., 2014]; [Leishman et al., 2016a],[b], [2017], [2018]). Chromatograms (Supplementary Figure 3) were generated by determining the retention time of analytes from the analytical column with a [M-1] or [M+1] parent peak and a fragmentation peak corresponding to the programmed values. […]

[1] = adult midbrain, 3mg/kg CP 55,940, p .049
[2] = adult midbrain, 3mg/kg CP 55,940, p .055
[3] = adult midbrain, 3mg/kg CP 55,940, p .060
[4] = adult midbrain, 3mg/kg CP 55,940, p .063
[5] = adult midbrain, 3mg/kg CP 55,940, p .073
[6] = adult midbrain, 3mg/kg CP 55,940, p .087
[7] = adult midbrain, 3mg/kg CP 55,940, p .098
[8] = brainstem, PND35, 3 mg/kg CP 55,940 vs Veh
[9] = brainstem, PND35 female mice, 3mg/kg CP 55,940, mean
[10] = brainstem, PND 50, 3 mg/kg CP 55,940

CCCCCCC(C)(C)c1ccc([C@@H]2C[C@H](O)CC[C@H]2CCCO)c(O)c1 [CP 55,940]
PGE2 Direction (relative to Veh) [1]: ↑
PGE2 Magnitude (x Veh level) [1]: 1.17
6-ketoPGF1α Direction (relative to Veh) [2]: ↑
6-ketoPGF1α Magnitude (x Veh level) [2]: 1.29
N-arachidonoyl ethanolamine, Direction (relative to Veh) [3]: ↓
N-arachidonoyl ethanolamine, Magnitude (x Veh level) [3]: 0.78
N-linoleoyl glycine Direction (relative to Veh) [4]: ↓
N-linoleoyl glycine Magnitude (x Veh level) [4]: 0.52
N-stearoyl ethanolamine direction (relative to Veh) [5]: ↑
N-stearoyl ethanolamine magnitude (x Veh level) [5]: 1.44
N-linoleoyl serine Direction (relative to Veh) [6]: ↓
N-linoleoyl serine Magnitude (x Veh level) [6]: 0.79
N-arachidonoyl serine Direction (relative to Veh) [7]: ↓
N-arachidonoyl serine Magnitude (x Veh level) [7]: 0.53
changes in lipid levels that were decreases (adult, eight regions): 78
2-arachidonoyl glycerol, Direction (relative to Veh) [8]: ↓
2-arachidonoyl glycerol, Magnitude (x Veh level) [8]: 0.81 x Veh level
2-linoleoyl glycerol Direction (relative to Veh) [8]: ↓
2-linoleoyl glycerol Magnitude (x Veh level) [8]: 0.82 x Veh level
N-arachidonoyl GABA Direction (relative to Veh) [8]: ↓
N-arachidonoyl GABA Magnitude (x Veh level) [8]: 0.70 x Veh level
N-arachidonoyl taurine Direction (relative to Veh) [8]: ↓
N-arachidonoyl taurine Magnitude (x Veh level) [8]: 0.89 x Veh level
N-docosahexaenoyl leucine Direction (relative to Veh) [8]: ↑
N-docosahexaenoyl leucine Magnitude (x Veh level) [8]: 1.37 x Veh level
N-docosahexaenoyl valine Direction (relative to Veh) [8]: ↑
N-docosahexaenoyl valine Magnitude (x Veh level) [8]: 1.56 x Veh level
N-oleoyl leucine Direction (relative to Veh) [8]: ↑
N-oleoyl leucine Magnitude (x Veh level) [8]: 1.15 x Veh level
N-oleoyl proline Direction (relative to Veh) [8]: ↑
N-oleoyl proline Magnitude (x Veh level) [8]: 1.16 x Veh level
N-oleoyl valine Direction (relative to Veh) [8]: ↑
N-oleoyl valine Magnitude (x Veh level) [8]: 1.26 x Veh level
N-palmitoyl leucine, Direction (relative to Veh) [8]: ↑
N-palmitoyl leucine, Magnitude (x Veh level) [8]: 1.38 x Veh level
N-palmitoyl phenylalanine Direction (relative to Veh) [8]: ↑
N-palmitoyl phenylalanine Magnitude (x Veh level) [8]: 1.22 x Veh level
N-palmitoyl proline Direction (relative to Veh) [8]: ↑
N-palmitoyl proline Magnitude (x Veh level) [8]: 1.20 x Veh level
N-palmitoyl tryptophan Direction (relative to Veh) [8]: ↓
N-palmitoyl tryptophan Magnitude (x Veh level) [8]: 0.82 x Veh level
N-palmitoyl valine Direction (relative to Veh) [8]: ↑
N-palmitoyl valine Magnitude (x Veh level) [8]: 1.40 x Veh level
N-stearoyl valine Direction (relative to Veh) [8]: ↑
N-stearoyl valine Magnitude (x Veh level) [8]: 1.41 x Veh level
PGE2 Direction (relative to Veh) [8]: ↑
PGE2 Magnitude (x Veh level) [8]: 1.15 x Veh level
2-arachidonoyl glycerol level [9]: 3.96E-10
2-linoleoyl glycerol level [9]: 1.58E-10
2-oleoyl glycerol level [9]: 1.53E-09
2-palmitoyl glycerol level [9]: 2.82E-10
6-ketoPGF1α level [9]: 1.2E-11
11-OH-THC level [9]: BDL
11-nor-9-carboxyTHC level [9]: BDL
Arachidonic acid level [9]: 1.65E-09
Cannabidiol level [9]: BDL
Linoleic acid level [9]: 5.88E-10
N- stearoyl valine level [9]: 5.2E-13
N-arachidonoyl serine level [9]: 3.04E-12
N-arachidonoyl taurine level [9]: 1.88E-11
N-arachidonoyl tryptophan level [9]: BDL
N-arachidonoyl tyrosine level [9]: 6.37E-13
N-docosahexaenoyl serine level [9]: 1.42E-11
N-docosahexaenoyl tyrosine level [9]: 8.89E-13
N-docosahexaenoyl valine level [9]: 1.82E-13
N-linoleoyl serine level [9]: 2.61E-11
N-linoleoyl tryptophan level [9]: BDL
N-linoleoyl tyrosine level [9]: BDL
N-nervonoyl valine level [9]: BDL
N-oleoyl proline level [9]: 6.88E-13
N-oleoyl serine level [9]: 1.44E-10
N-oleoyl tyrosine level [9]: 5.15E-13
N-oleoyl valine level [9]: 5.41E-13
N-palmitoyl proline level [9]: 9.02E-13
N-palmitoyl serine level [9]: 3.95E-11
N-palmitoyl tryptophan level [9]: 2.02E-13
N-palmitoyl tyrosine level [9]: 8.2E-13
N-palmitoyl valine level [9]: 1.16E-12
N-stearoyl proline level [9]: 4.63E-13
N-stearoyl serine level [9]: 2.01E-11
N-stearoyl tryptophan level [9]: 2.84E-13
N-stearoyl tyrosine level [9]: 8.52E-14
Oleic acid level [9]: 1.63E-09
PGE2 level [9]: 2.93E-10
PGF2α level [9]: 2.4E-10
PhosphoLEA level [9]: 2.06E-11
THC level [9]: BDL
2-arachidonoyl glycerol level, Mean [10]: 2.23E-10
2-linoleoyl glycerol level, Mean [10]: 2.39E-10
2-oleoyl glycerol level, Mean [10]: 3.85E-09
2-palmitoyl glycerol level, Mean [10]: 8.83E-10
6-ketoPGF1α level, Mean [10]: 1.35E-11
11-OH-THC level, Mean [10]: BDL
11-nor-9-carboxyTHC level, Mean [10]: BDL
Arachidonic acid level, Mean [10]: 1.44E-10
Cannabidiol level, Mean [10]: BDL
Linoleic acid level, Mean [10]: 1.4E-10
N- stearoyl valine level, Mean [10]: 8.37E-14
N-arachidonoyl GABA level, Mean [10]: 3.67E-12
N-arachidonoyl alanine level, Mean [10]: 1.22E-13
N-arachidonoyl dopamine level, Mean [10]: BDL
N-arachidonoyl ethanolamine level, Mean [10]: 2.44E-11

Source: paper PMC6277767, “Broad and Region-Specific Impacts of the Synthetic Cannabinoid CP 55,940 in Adolescent and Adult Female Mouse Brains” (Frontiers in Molecular Neuroscience, 2018)
